Measurements taken from patent publication US20260115181A1, “TRANSCRIPTION FACTOR PFAP2-O5 INHIBITOR FOR PLASMODIUM FALCIPARUM, PHARMACEUTICAL COMPOSITION, AND DRUG FOR TREATING MALARIA RESISTANT TO ARTEMISININ AND ANALOG THEREOF” (priority 2023, published 2026).

Experiments:
PfAP2-O5 = assay: Transcriptome sequencing (RNA-seq) analysis of effects on PfAP2-O5 target (invasion) gene expression; type: cell-based, Plasmodium falciparum; conditions: wild-type strain, 1 μM
Protocol: Wild-type and pfap2-o5 conditional knockdown Plasmodium falciparum strains were treated with the hexahydroquinoline derivative represented by formula (I), respectively. After strict synchronization of the Plasmodium falciparum strains, 1 μM hexahydroquinoline derivative was added one life cycle in advance. After one life cycle, the ring (10-15 hours), trophozoite (28-32 hours), and schizont (40-44 hours) stage cultures of the wild-type and pfap2-o5 conditional knockdown Plasmodium falciparum strains treated with the hexahydroquinoline derivative were collected. Total RNA was purified using the Direct-zol RNA kit, strand-specific RNA sequencing libraries were then prepared using KAPA mRNA beads, and the RNA was fragmented. The libraries were sequenced on the Illumina HiSeq X Ten system, and the differential gene expression between the two Plasmodium falciparum strains after inhibitor treatment was analyzed.

[1] = system: human renal epithelial cell line 293T; assay: Cytotoxicity, CCK8 assay, 293T cells; type: cell-based; conditions: 72 hours
Protocol: (§1) Mammalian 293T and HepG2 cells were cultured and passaged, trypsinized, and resuspended in DMEM. The cells were counted using a hemocytometer and diluted to 10^5 cells/mL. The cell suspension was evenly added to a 96-well plate, with 100 μL per well. After the cells were subjected to attachment culture in a 37° C. incubator (5% CO2) for 24 hours, the inhibitors of the corresponding concentrations were added. Gradient dilution (11 concentration gradients) was performed at a 1/2 ratio according to the doubling gradient dilution. Complete culture medium was used as a negative control, and DMEM was used as a background control. After the culture in a 37° C. incubator (5% CO2) for 72 hours, 10 μL of CCK8 reagent was added to each well. The plate was incubated in a 37° C. incubator (5% CO2) for 1 hour. The absorbance at a 450 nm wavelength was read by a microplate reader, and a survival rate was calculated based on the absorbance.
(§2) [formula] • where Abtreated, Abbackground, and Abcontrol represent the absorbance values of the small molecule drug group, the DMEM control group, and the untreated control group, respectively. The inhibition rate of the drug was calculated based on the survival rate at different concentrations, and the growth inhibition curve was summarized as inhibition rate-drug concentration. The IC50 was calculated using SPSS 18.0 software.

[2] = system: human liver cancer cell line HepG2; assay: Cytotoxicity, CCK8 assay, HepG2 cells; type: cell-based; conditions: HepG2, 72 hours
Protocol: as §1, §2

[3] = Liver microsomal metabolism assay, rat; type: in vitro ADME
Protocol: (§3) In the microsomal metabolism assay, the inhibitor was incubated with liver microsomes from different species; the reaction was terminated at different time points; the remaining amount of the inhibitor in the samples at each time point was determined using LC-MS/MS. The percentage of parent drug remaining was calculated, and the hepatic intrinsic clearance CLint(liver) was finally obtained. Testosterone was used as a control in this study to verify the reliability of the experimental system. The detailed procedures were as follows: • The incubation system consisted of 0.1 M Tris-HCl buffer (pH 7.4), 1 mM MgCl2, 1 mM NADPH (Nicotinamide Adenine Dinucleotide Phosphate), and 0.5 mg/ml microsomes, and the final reaction volume was 200 μL. […] inhibitor and testosterone were pre-incubated with liver microsomes from different species in a 37° C. water bath for 5 minutes. 100 μL of NADPH was added to initiate the reaction. 400 μL of stop solution was added to terminate the reaction at time points of 0 minutes, 5 minutes, 15 minutes, 30 minutes, 45 minutes, and 60 minutes. 40 μL of internal standard was added, and the mixture was vortexed for 5 minutes and centrifuged at 20,000 g and 4° C. for 5 minutes. 100 μL of the supernatant was taken and diluted with 100 μL of water for injection and analysis. The retention time of the compound and the internal standard, chromatogram acquisition, and chromatogram integration were processed by Analyst 1.6.3 software. The compound was subjected to linear regression with a weighting coefficient of 1/X^2 to calculate the concentration at each time point. The natural logarithm of the percentage remaining at each time point was linearly regressed against the incubation time to calculate the in vitro elimination rate constant k. The half-life (T1/2) and hepatic intrinsic clearance CLint(liver) of the test article were calculated according to the following formula.
(§4) hepatic microsomal clearance CLint(mic)=0.693/half-life/mg microsomal protein per mL; hepatic intrinsic clearance CLint(liver)=hepatic microsomal clearance×mg microsomal protein/gram of liver×liver weight-to-body weight ratio. The liver weight-to-body weight ratios of mice, rats, and humans were 88, 40, and 20 g/kg, respectively; the average value of mg microsomal protein/gram of liver in different species was 45.

Plasmodium falciparum = assay: In vitro growth inhibition of Plasmodium falciparum (3-day SYBR Green I cell growth assay); type: cell-based; conditions: wild-type Plasmodium falciparum, 72 hours, read-out: IC50 of the quantitative growth inhibitory effect on in vitro culture of Plasmodium falciparum
Protocol: 100 μL of complete culture medium was added to a 96-well plate. 200 μL of a compound stock solution with a concentration of 200 μM was added to the first well. Gradient dilution (11 concentration gradients) was performed at a 1/2 ratio according to the doubling gradient dilution. Dihydroartemisinin (DHA) was used as a positive control, complete culture medium was used as a negative control, and red blood cells without Plasmodium falciparum or compounds were used as a background control.
100 μL of wild-type Plasmodium falciparum culture (1% parasitemia, 4% hematocrit) was accurately added to each well, so that finally, the parasitemia in each well was 0.5%, and the hematocrit was 2%. The final concentration gradients of the compound were 100 μM, 50 μM, 25 μM, 12.5 μM, 6.25 μM, 3.125 μM, 1.5625 μM, 0.78125 μM, 0.390625 µM, 0.195313 μM, and 0.097656 μM. […] After the incubation was completed, a fluorescence intensity was recorded on a microplate reader with an excitation wavelength of 485 nm and an emission wavelength of 535 nm. The inhibition rate of the small molecule inhibitor on the growth of Plasmodium falciparum was calculated based on the fluorescence intensity.
[formula] • where Fltreated, Flbackground, and Flcontrol represent the fluorescence intensity values of the candidate small molecule drug group, the red blood cell control group, and the untreated control group, respectively. […]

[4] = Liver microsomal metabolism assay, human; type: in vitro ADME
Protocol: as §3, §4

[5] = Liver microsomal metabolism assay, mouse; type: in vitro ADME
Protocol: as §3, §4

SMILES: CC1=C(C(=O)Nc2cccc(C(F)(F)F)c2)C(c2cccc([N+](=O)[O-])c2)C2=C(CC(C)(C)CC2=O)N1 (centres unmarked) [hexahydroquinoline derivative]
- expression of PfAP2-O5 target genes after treatment (PfAP2-O5): downregulated
- decrease of expression levels of merozoite surface structural protein family (invasion) genes (mRNA level) (PfAP2-O5; added one life cycle in advance): more than 1.5 fold
- cytotoxicity to mammalian cells [1]: low cytotoxicity
- cytotoxicity to mammalian cells [2]: low cytotoxicity
- CLint scaled ([3]; liver microsomes, pH 7.4, rat, hepatic intrinsic clearance CLint(liver), scaled with 45 mg protein/g liver, 40 g/kg): 178 mL/min/kg
- half-life ([3]; pH 7.4, rat liver microsomes 0.5 mg/ml, 1 mM NADPH, 37° C.): 14.1 min
- clearance classification ([3]; rat liver microsomes): high-clearance compound
- k ([3]; rat liver microsomes 0.5 mg/ml, 1 mM NADPH, 1 M inhibitor, 37° C.): 0.0493 min⁻¹
- IC50 (Plasmodium falciparum): 2.16 µM
- clearance classification ([4]; human liver microsomes): moderate-clearance compound
- k ([4]; human liver microsomes 0.5 mg/ml, 1 mM NADPH, 1 M inhibitor, 37° C.): 0.0124 min⁻¹
- CLint scaled ([4]; liver microsomes, pH 7.4, human, hepatic intrinsic clearance CLint(liver), scaled with 45 mg protein/g liver, 20 g/kg): 22.3 mL/min/kg
- half-life ([4]; pH 7.4, human liver microsomes 0.5 mg/ml, 1 mM NADPH, 37° C.): 55.9 min
- CLint scaled ([5]; liver microsomes, pH 7.4, mouse, hepatic intrinsic clearance CLint(liver), scaled with 45 mg protein/g liver, 88 g/kg): 176 mL/min/kg
- clearance classification ([5]; mouse liver microsomes): moderate-clearance compound
- k ([5]; mouse liver microsomes 0.5 mg/ml, 1 mM NADPH, 1 M inhibitor, 37° C.): 0.0222 min⁻¹
- half-life ([5]; pH 7.4, mouse liver microsomes 0.5 mg/ml, 1 mM NADPH, 37° C.): 31.2 min
